Source: patent publication US20220323406A1, “METHODS AND COMPOSITIONS FOR DIFFERENTIATING STEM CELLS” (Massachusetts Institute of Technology, priority 2019, published 2022)
Counter-ions that a name gives are not always drawn.

Legend:
[1] = test system: ENR+CD organoids (ISC to Paneth cell differentiation); assay: Primary screen: CCh-stimulated lysozyme secretion LYZ.S, 2.5-D 384-well ENR+CD organoid differentiation; assay type: cell-based, mouse; conditions: primary screen
From the text: (§1) High-throughput screening.

ENR+CD organoids = assay: Primary screen: ATP (CellTiter-Glo 3D, CTG) cell number/viability, 2.5-D 384-well ENR+CD organoids; conditions: primary screen; for Z.CTG: standard z score;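 for all read-outs here: compounds given at plating and again on day 3 over a 6-day differentiation from ENR+CV stem-cell-enriched precursors, ATP measured on day 6, plate median as control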
[2] = test system: ENR+CD organoids (ISC to Paneth cell differentiation); assay: Primary screen: basal (non-stimulated) lysozyme secretion LYZ.NS, 2.5-D 384-well ENR+CD organoid differentiation; assay type: cell-based, mouse; conditions: primary screen; for Z.LYZ.NS: standard z score
From the text: as §1

[3] = dose 0.08 uM, FC relative to plate median
[4] = dose 0.40 uM, FC relative to plate median
[5] = dose 2.00 uM, FC relative to plate median
[6] = dose 10.00 uM, FC relative to plate median

| SMILES | Dose.FC.LYZ.S ([1]; dose 0.08 uM) | Dose.FC.LYZ.S ([1]; dose 0.40 uM) | Dose.FC.LYZ.S ([1]; dose 2.00 uM) | Dose.FC.LYZ.S ([1]; dose 10.00 uM) | Dose.FC.CTG (ENR+CD organoids; dose 0.08 uM) | Dose.FC.CTG (ENR+CD organoids; dose 0.40 uM) | Z.CTG (standard z score) (ENR+CD organoids; dose 0.40 uM) | Dose.FC.CTG (ENR+CD organoids; dose 2.00 uM) | Z.CTG (standard z score) (ENR+CD organoids; dose 2.00 uM) | Dose.FC.CTG (ENR+CD organoids; dose 10.00 uM) | Z.CTG (standard z score) (ENR+CD organoids; dose 10.00 uM) | Dose.FC.LYZ.NS ([2]; dose 0.08 uM) | Z.LYZ.NS (standard z score) ([2]; dose 0.08 uM) | Dose.FC.LYZ.NS ([2]; dose 0.40 uM) | Z.LYZ.NS (standard z score) ([2]; dose 0.40 uM) | Dose.FC.LYZ.NS ([2]; dose 2.00 uM) | Z.LYZ.NS (standard z score) ([2]; dose 2.00 uM) | Dose.FC.LYZ.NS ([2]; dose 10.00 uM) | Z.LYZ.NS (standard z score) ([2]; dose 10.00 uM) | Dose.FC.LYZ.S [1, 3] | also measured |
| --- | --- | --- | --- | --- | --- | --- | --- | --- | --- | --- | --- | --- | --- | --- | --- | --- | --- | --- | --- | --- | --- |
| Nc1nc(N)c2nc(-c3cccc(O)c3)c(-c3cccc(O)c3)nc2n1 [TG100-115] | 0.073 log2 fold change | 0.032 log2 fold change | −0.019 log2 fold change | −0.100 log2 fold change | −0.256 log2 fold change | 0.066 log2 fold change | 0.158 | −0.013 log2 fold change | −0.031 | −0.116 log2 fold change | −0.277 | 0.208 log2 fold change | 1.812 | −0.026 log2 fold change | −0.223 | 0.003 log2 fold change | 0.025 | −0.026 log2 fold change | −0.223 |  | Z.CTG (standard z score) (ENR+CD organoids; dose 0.08 uM): −0.611 |
| NC(=O)Nc1sc(-c2ccc(F)cc2)cc1C(N)=O [TPCA-1] | 0.041 log2 fold change | −0.029 log2 fold change | −0.054 log2 fold change | −0.294 log2 fold change | −0.061 log2 fold change | −0.004 log2 fold change | −0.010 | −0.005 log2 fold change | −0.012 | −0.531 log2 fold change | −1.269 | 0.072 log2 fold change | 0.627 | −0.047 log2 fold change | −0.413 | −0.059 log2 fold change | −0.514 | −0.197 log2 fold change | −1.711 |  | Z.CTG (standard z score) (ENR+CD organoids; dose 0.08 uM): −0.146 |
| Nc1cccc(-c2cc3c(Oc4cccc(O)c4)ncnc3[nH]2)c1 [TWS119] | 0.207 log2 fold change | 0.142 log2 fold change | 0.044 log2 fold change | −0.283 log2 fold change | 0.328 log2 fold change | 0.333 log2 fold change | 0.796 | 0.071 log2 fold change | 0.169 | −1.200 log2 fold change | −2.866 | 0.094 log2 fold change | 0.820 | 0.038 log2 fold change | 0.327 | 0.035 log2 fold change | 0.304 | −0.233 log2 fold change | −2.027 |  | Z.CTG (standard z score) (ENR+CD organoids; dose 0.08 uM): 0.784 |
| CN1CC(=O)N2[C@H](c3ccc4c(c3)OCO4)c3[nH]c4ccccc4c3C[C@@H]2C1=O [Tadalafil] |  |  |  |  |  |  |  |  |  |  |  |  |  |  |  |  |  |  |  | 0.091 log2 fold change | Dose.FC.LYZ.S [1, 4]: 0.095 log2 fold change; Dose.FC.LYZ.S [1, 5]: 0.223 log2 fold change; Dose.FC.LYZ.S [1, 6]: 0.148 log2 fold change; Dose.FC.CTG (ENR+CD organoids; [3]): −0.019 log2 fold change; Dose.FC.CTG (ENR+CD organoids; [4]): 0.361 log2 fold change; Dose.FC.CTG (ENR+CD organoids; [5]): 0.436 log2 fold change; Dose.FC.CTG (ENR+CD organoids; [6]): 0.270 log2 fold change; Dose.FC.LYZ.NS [2, 3]: 0.102 log2 fold change; Z.LYZ.NS ([2]; dose 0.08 uM): 0.887; Dose.FC.LYZ.NS [2, 4]: 0.027 log2 fold change; Z.LYZ.NS ([2]; dose 0.40 uM): 0.233; Dose.FC.LYZ.NS [2, 5]: 0.130 log2 fold change; Z.LYZ.NS ([2]; dose 2.00 uM): 1.128; Dose.FC.LYZ.NS [2, 6]: 0.061 log2 fold change; Z.LYZ.NS ([2]; dose 10.00 uM): 0.534 |
| COc1cc2c(N3CCN(C(=O)Nc4ccc(OC(C)C)cc4)CC3)ncnc2cc1OCCCN1CCCCC1 [Tandutinib (MLN518)] |  |  |  |  |  |  |  |  |  |  |  |  |  |  |  |  |  |  |  | 0.145 log2 fold change | Dose.FC.LYZ.S [1, 4]: 0.178 log2 fold change; Dose.FC.LYZ.S [1, 5]: 0.093 log2 fold change; Dose.FC.LYZ.S [1, 6]: 0.100 log2 fold change; Dose.FC.CTG (ENR+CD organoids; [3]): 0.585 log2 fold change; Z.CTG (ENR+CD organoids; dose 0.08 uM): 1.397; Dose.FC.CTG (ENR+CD organoids; [4]): 0.354 log2 fold change; Z.CTG (ENR+CD organoids; dose 0.40 uM): 0.845; Dose.FC.CTG (ENR+CD organoids; [5]): 0.358 log2 fold change; Z.CTG (ENR+CD organoids; dose 2.00 uM): 0.856; Dose.FC.CTG (ENR+CD organoids; [6]): 0.586 log2 fold change; Z.CTG (ENR+CD organoids; dose 10.00 uM): 1.401; Dose.FC.LYZ.NS [2, 3]: 0.095 log2 fold change; Z.LYZ.NS ([2]; dose 0.08 uM): 0.828; Dose.FC.LYZ.NS [2, 4]: 0.122 log2 fold change; Z.LYZ.NS ([2]; dose 0.40 uM): 1.066; Dose.FC.LYZ.NS [2, 5]: 0.116 log2 fold change; Z.LYZ.NS ([2]; dose 2.00 uM): 1.012; Dose.FC.LYZ.NS [2, 6]: 0.047 log2 fold change; Z.LYZ.NS ([2]; dose 10.00 uM): 0.407 |
| COc1cc2c(cc1OC)CN(CCc1ccc(NC(=O)c3cc(OC)c(OC)cc3NC(=O)c3cnc4ccccc4c3)cc1)CC2 [Tariquidar] |  |  |  |  |  |  |  |  |  |  |  |  |  |  |  |  |  |  |  | 0.040 log2 fold change | Dose.FC.LYZ.S [1, 4]: 0.073 log2 fold change; Dose.FC.LYZ.S [1, 5]: 0.059 log2 fold change; Dose.FC.LYZ.S [1, 6]: 0.019 log2 fold change; Dose.FC.CTG (ENR+CD organoids; [3]): −0.117 log2 fold change; Dose.FC.CTG (ENR+CD organoids; [4]): 0.054 log2 fold change; Dose.FC.CTG (ENR+CD organoids; [5]): 0.376 log2 fold change; Dose.FC.CTG (ENR+CD organoids; [6]): 0.227 log2 fold change; Dose.FC.LYZ.NS [2, 3]: 0.053 log2 fold change; Z.LYZ.NS ([2]; dose 0.08 uM): 0.465; Dose.FC.LYZ.NS [2, 4]: 0.037 log2 fold change; Z.LYZ.NS ([2]; dose 0.40 uM): 0.326; Dose.FC.LYZ.NS [2, 5]: 0.031 log2 fold change; Z.LYZ.NS ([2]; dose 2.00 uM): 0.270; Dose.FC.LYZ.NS [2, 6]: 0.034 log2 fold change; Z.LYZ.NS ([2]; dose 10.00 uM): 0.292 |
| CCCc1nc2c(C)cc(-c3nc4ccccc4n3C)cc2n1Cc1ccc(-c2ccccc2C(=O)O)cc1 [Telmisartan] |  |  |  |  |  |  |  |  |  |  |  |  |  |  |  |  |  |  |  | 0.140 log2 fold change | Dose.FC.LYZ.S [1, 4]: 0.106 log2 fold change; Dose.FC.LYZ.S [1, 5]: 0.063 log2 fold change; Dose.FC.LYZ.S [1, 6]: −0.003 log2 fold change; Dose.FC.CTG (ENR+CD organoids; [3]): 0.134 log2 fold change; Dose.FC.CTG (ENR+CD organoids; [4]): 0.244 log2 fold change; Dose.FC.CTG (ENR+CD organoids; [5]): 0.064 log2 fold change; Dose.FC.CTG (ENR+CD organoids; [6]): 0.230 log2 fold change; Dose.FC.LYZ.NS [2, 3]: 0.139 log2 fold change; Z.LYZ.NS ([2]; dose 0.08 uM): 1.213; Dose.FC.LYZ.NS [2, 4]: 0.129 log2 fold change; Z.LYZ.NS ([2]; dose 0.40 uM): 1.124; Dose.FC.LYZ.NS [2, 5]: 0.057 log2 fold change; Z.LYZ.NS ([2]; dose 2.00 uM): 0.499; Dose.FC.LYZ.NS [2, 6]: −0.007 log2 fold change; Z.LYZ.NS ([2]; dose 10.00 uM): −0.060 |
| CO[C@H]1C[C@@H]2CC[C@@H](C)[C@@](O)(O2)C(=O)C(=O)N2CCCC[C@H]2C(=O)O[C@H]([C@H](C)C[C@@H]2CC[C@@H](OC(=O)C(C)(CO)CO)[C@H](OC)C2)CC(=O)[C@H](C)/C=C(\C)[C@@H](O)[C@@H](OC)C(=O)[C@H](C)C[C@H](C)/C=C/C=C/C=C/1C [Temsirolimus (CCI-779, NSC 683864)] |  | 0.152 log2 fold change | 0.132 log2 fold change | 0.153 log2 fold change |  | 0.583 log2 fold change | 1.393 | 0.578 log2 fold change | 1.382 | 0.200 log2 fold change | 0.478 |  |  | 0.088 log2 fold change | 0.763 | 0.172 log2 fold change | 1.494 | 0.119 log2 fold change | 1.035 | 0.082 log2 fold change | Dose.FC.CTG (ENR+CD organoids; [3]): 0.514 log2 fold change; Z.CTG (ENR+CD organoids; dose 0.08 uM): 1.228; Dose.FC.LYZ.NS [2, 3]: 0.091 log2 fold change; Z.LYZ.NS ([2]; dose 0.08 uM): 0.790 |
| CC(C)OC(=O)OCOP(=O)(CO[C@H](C)Cn1cnc2c(N)ncnc21)OCOC(=O)OC(C)C [Tenofovir Disoproxil Fumarate] | 0.208 log2 fold change | 0.086 log2 fold change | −0.065 log2 fold change | −0.267 log2 fold change | 0.072 log2 fold change | −0.002 log2 fold change |  | −0.158 log2 fold change |  | −0.433 log2 fold change |  | 0.055 log2 fold change | 0.475 | −0.051 log2 fold change | −0.442 | −0.079 log2 fold change | −0.689 | −0.185 log2 fold change | −1.614 |  |  |
| C[C@H](Cn1cnc2c(N)ncnc21)OCP(=O)(O)O [Tenofovir] | 0.045 log2 fold change | −0.080 log2 fold change | −0.171 log2 fold change | −0.271 log2 fold change | 0.019 log2 fold change | −0.084 log2 fold change | −0.200 | −0.129 log2 fold change | −0.308 | −0.337 log2 fold change | −0.804 | 0.077 log2 fold change | 0.673 | −0.076 log2 fold change | −0.662 | −0.132 log2 fold change | −1.153 | −0.218 log2 fold change | −1.899 |  | Z.CTG (standard z score) (ENR+CD organoids; dose 0.08 uM): 0.045 |
